# “Also recorded” adds a separate entry of the source.
# Experiments:
# [1] = Plasma pharmacokinetics of phenolic metabolites after oral capsule of (poly)phenol-rich Mediterranean extract mixture; conditions: for AUC0-t plasma / MRT0-t plasma / T1/2 plasma / Tmax plasma: oral capsule, 0-24 h, n = 6 per time point
# Protocol: (§2) Adult male Sprague–Dawley rats weighing 250–300 g were purchased from the Animal Experimentation Service of the University of Murcia (Murcia, Spain). […] Animals were maintained in a temperature-controlled environment with a 12 h light-dark cycle. […] Based on the experimental design shown in Figure 1, one capsule was administered by gavage to each fasting animal. A total of 40 animals were used in the study. Thirty animals received a capsule containing a mixture of different Mediterranean food extracts, while ten animals received a capsule with microcrystalline cellulose and served as the control group. At each time point (1, 3, 6, 8, and 24 h postadministration), six animals from the extract group were sacrificed, three with transcardial perfusion using saline (PB) and three without perfusion (NPB), to assess the distribution of extract-derived metabolites in plasma and brain. To minimize animal use in accordance with the 3Rs principle, two control animals were sacrificed at each time point (one PB and one NPB). […] All animals were fasted overnight prior to gavage and euthanized with carbon dioxide.
# (§3) Blood samples collected by cardiac puncture in sodium heparin tubes at each time point after sacrifice were immediately centrifuged at 14,000 × g for 15 min at 4 °C, and the plasma was stored at −80 °C until their analysis. Plasma samples were extracted with ACN:formic acid (98:2, v/v), centrifuged and evaporated in a speed vacuum concentrator (Savant SPD14 0DDA). The evaporated samples were resuspended in 100 μL MeOH and filtered through 0.22 μm regenerated cellulose filters (Minisart Sartorius, Madrid, Spain).
# (§4) We performed a targeted metabolomic analysis using an ultrahigh-performance liquid chromatographic system (UPLC) coupled to a quadrupole-time-of-flight (QTOF) mass spectrometer. The phenolic compounds were separated using an Agilent Poroshell 120 column (100 mm × 3 mm, 2.7 μm) and a 5 μL injection volume. The mobile phases used were 0.1% formic acid in water (A) and 0.1% formic acid in ACN (B), and the gradient was: 0–3 min, 5–15% B; 3–11 min, 15–30% B; 11–14 min, 30–50% B, 14–16 min, 50–90% B. Finally, the B content was decreased to the initial conditions (5%) in 1 min, and the column re-equilibrated for 4 min. The flow rate was set constant at 0.4 mL/min. The spectra were acquired in the m/z range from 100 to 1100, in negative polarity mode and an acquisition rate of 1.5 spectra per second.
# [2] = Perfused brain (PB) kinetics of phenolic metabolites after oral capsule; type: in vivo, Sprague–Dawley rats; set-up: AUC0-t PB: concentration or dose not given beside the values; conditions: perfused brain; for half-life: read-out: T1/2 PB (converted)
# Text: (§1) Statistical analyses were applied depending on the experimental context.
# [3] = Targeted metabolomics (UPLC-ESI-QTOF) identification of metabolites in plasma, PB and NPB; conditions: P plasma, PB perfused brain, NPB nonperfused brain, 1-24 h after oral capsule
# Protocol: (§5) Adult male Sprague–Dawley rats weighing 250–300 g were purchased from the Animal Experimentation Service of the University of Murcia (Murcia, Spain). […] Based on the experimental design shown in Figure 1, one capsule was administered by gavage to each fasting animal. A total of 40 animals were used in the study. Thirty animals received a capsule containing a mixture of different Mediterranean food extracts, while ten animals received a capsule with microcrystalline cellulose and served as the control group. […] To minimize animal use in accordance with the 3Rs principle, two control animals were sacrificed at each time point (one PB and one NPB). These controls served to identify potential endogenous compounds or background signals not related to the extract administration. All animals were fasted overnight prior to gavage and euthanized with carbon dioxide.
# (§6) Plasma samples were extracted with ACN:formic acid (98:2, v/v), centrifuged and evaporated in a speed vacuum concentrator (Savant SPD14 0DDA). The evaporated samples were resuspended in 100 μL MeOH and filtered through 0.22 μm regenerated cellulose filters (Minisart Sartorius, Madrid, Spain). Next, half of the animals at each time point were perfused with ice-cold phosphate-buffered saline, and the blood-free brain was dissected out immediately and stored at – 80 °C until analysis, as previously reported.[37],[48]
# (§7) Approximately 400 mg of brain tissue (perfused or nonperfused) was weighed and extensively washed with cold PBS to avoid external blood contamination. After weighting, the samples were placed in 2 mL screw cap tubes. […] The evaporated samples were resuspended in 100 μL MeOH and filtered through 0.22 μm regenerated cellulose filters.
# (§8) We performed a targeted metabolomic analysis using an ultrahigh-performance liquid chromatographic system (UPLC) coupled to a quadrupole-time-of-flight (QTOF) mass spectrometer. The phenolic compounds were separated using an Agilent Poroshell 120 column (100 mm × 3 mm, 2.7 μm) and a 5 μL injection volume. […] The flow rate was set constant at 0.4 mL/min. The spectra were acquired in the m/z range from 100 to 1100, in negative polarity mode and an acquisition rate of 1.5 spectra per second. Quantitative data were processed using the Mass HunterQualitative Analysis software (version B.08.00, Agilent). A target screening strategy was applied for the qualitative analysis of possible metabolites derived from the consumption of the Mediterranean blend. […] These compounds encompass derived metabolites conjugated (glucuronides, sulfates, and sulfoglucuronides, among others). The exact mass of the proposed compound was extracted using an extraction window of 0.01 m/z. Metabolite quantification was performed by integrating the peak areas of their extracted ion chromatograms (EICs). Compounds with available standards were quantified using calibration curves derived from the respective standards, while other metabolites were semiquantified based on their peak area values.
# [4] = tested on: human brain microvascular endothelial cells (HBMECs); experiment: In vitro blood–brain barrier transport (Transwell); type: in vitro ADME; conditions: 2 h; for transport percentage, individual compounds: HBMEC monolayer, lower compartment / total concentration; for transport percentage, individual compounds / transport efficiency in both mixtures and as individual molecules: 2.5 μM; for transport efficiency in both mixtures and as individual molecules / transport efficiency in MIXperc compared with MIXeq: HBMEC; for transport efficiency in MIXperc compared with MIXeq: mixtures at 2.5 μM final
# Protocol: The BBB transport model was established using human brain microvascular endothelial cells (HBMECs), following a methodology previously described.[49] Cells were maintained at 37 °C in a humidified environment with 5% CO2. HBMECs were seeded on 12-well Transwell inserts (12 mm, 0.4 μm pore polyester membrane; Corning, Madrid, Spain) and cultured for 6 days to form confluent monolayers suitable for transport studies. Transport assays were carried out in Hanks’ Balanced Salt Solution (HBSS) supplemented with 0.1% fetal bovine serum (FBS, v/v). The cells were exposed on the apical side to individual phenolic metabolites detected in the brain from the animal study, a representative mixture containing equal concentrations of these metabolites, or a physiological mixture reproducing their relative percentages as observed in the brain. All treatments were applied at a final concentration of 2.5 μM for 2 h (Supporting Information, Table S3). The integrity of the cell monolayers was confirmed by measuring transendothelial electrical resistance (TEER) at the start of the experiment (0 h) and after the last time point (2 h) using an EVOM2 Epithelial Volt Ohm Meter (World Precision Instruments, Inc., USA).
# Samples from the apical and basolateral compartments were stored at −80 °C for further analysis. Transport of the compounds was evaluated using UPLC-qTOF as described elsewhere,[38] and transendothelial permeability expressed as a percentage of the ratio between the concentration in the basolateral compartment relative to the total concentration in both compartments.
# Finally, one-way ANOVA with Tukey’s multiple comparisons test was exclusively applied to in vitro BBB transport experiments. The three tested conditions for each compound (individual compound, a mixture containing equal concentrations of these compounds, or a physiological mixture reproducing their relative percentages as observed in the brain were evaluated. Plots were performed using GraphPad 9.0 (GraphPad Software, Boston, Massachusetts, USA). Statistical significance was set at P < 0.05.
# Figure 3 Transport efficiency of phenolic metabolites across the BBB. Human brain microvascular endothelial cells (HBMEC) were seeded onto semipermeable membranes. […] Detailed composition of both mixtures is given in the Supporting Information, Table S3. Media from the upper and lower compartments were collected, and endothelial transport was evaluated by UPLC-qTOF-MS. The transport percentage (%) was determined by the concentration ratio in the lower compartment to the total concentration (upper and lower compartments). All values are presented as mean ± SD from three independent experiments.
# [5] = Nonperfused brain (NPB) kinetics of phenolic metabolites after oral capsule; type: in vivo, Sprague–Dawley rats; set-up: AUC0-t NPB: concentration or dose not given beside the values; conditions: for AUC0-t NPB / Cmax NPB / Tmax NPB / Tmax / MRT last / half-life: nonperfused brain, oral capsule, 0-24 h, n = 3 per time point; for Tmax / MRT last / half-life: male, Sprague-Dawley, rat, 22 mg extract blend per capsule, one capsule per animal; for MRT last: read-out: MRT0-t NPB; for half-life: read-out: T1/2 NPB (converted)
# Text: as §1
# [6] = in vivo; conditions: male, Sprague-Dawley, rat, po
# Protocol: as §2, §3, §4
# [7] = rat, in vivo
# Protocol: as §5, §6, §7, §8
# [8] = set-up: method as in doi:10.1016/j.jff.2015.09.019; conditions: human, even upon high free ellagic acid intake; cited from earlier work
# [9] = read-out: Cmax plasma, oral capsule, 0-24 h, n = 6 per time point
# [10] = oral capsule, 0-24 h, n = 3 per time point
# [11] = male, Sprague-Dawley, rat, po, 22 mg extract blend per capsule, one capsule per animal
# [12] = male, Sprague-Dawley, rat, 22 mg extract blend per capsule, one capsule per animal, oral capsule, 0-24 h, n = 3 per time point
SMILES,"Cmax PB [2, 10] [pmol/g tissue]","transport percentage, individual compounds [4]",AUC0-t NPB [5] [pmol·h/g],Cmax NPB [5] [pmol/g tissue],"AUC(0-t) [1, 11] [µM·h]","Cmax [1, 11] [nM]","MRT last [1, 11] [h]","Tmax [1, 11] [h]","half-life [1, 11] [h]","Tmax [2, 12] [h]","AUC0-t PB [2, 10] [pmol·h/g]",Tmax [5] [h],transport efficiency in MIXperc compared with MIXeq [4],MRT last [5] [h],half-life [5] [h],occurrence [3],transport efficiency in both mixtures and as individual molecules [4],other results
O=C(O)CCc1ccc(O)c(O)c1 [dihydrocaffeic acid],0.7 ± 0.3,< 5%,18 ± 1,0.9 ± 0.1,0.127 ± 0.031,16 ± 8.6,86 ± 138,2.6 ± 0.9,61 ± 94,4.5 ± 5,11 ± 2.8,24,–,–,–,"PB, NPB, P",–,"occurrence ([3]; listed as 3-(3,4-dihydroxyphenyl)propionic acid): consistently detected in plasma and brain at all time points"
O=S(=O)(O)Oc1ccc(C=Cc2cc(O)cc(O)c2)cc1 [resveratrol 4’-O-sulfate],–,–,–,–,–,–,–,–,–,–,–,–,–,–,–,restricted to plasma,–,AUC(0-t) [6]: 0.026 ± 0.027 µM·h; Cmax [6]: 2.9 ± 2.8 nM; MRT last [6]: 10.7 h; Tmax [6]: 7.3 ± 1.2 h; half-life [6]: 5.6 h; concentration–time profile in brain (Figure 2) [7]: Not detected
O=C(O)CCCCc1cccc(O)c1 [5-(3-hydroxyphenyl)-valeric acid],2.4 ± 0.8,–,33 ± 4.8,3.4 ± 0.7,0.055 ± 0.011,4.8 ± 1.9,43 ± 45,7.4 ± 9.5,29 ± 32,2 ± 1.2,30 ± 6.5,2.3 ± 1.2,lower transport percentages,102 ± 62,70 ± 46,"PB, NPB, P",–,"concentration in plasma (approximate) [1]: approximately 5 nM; half-life [2, 12]: 39 ± 19 h; occurrence ([3]; listed as 5-(3-hydroxyphenyl)valeric acid): consistently detected in plasma and brain at all time points"
O=C(O)CCc1cccc(O)c1 [3-(3-hydroxyphenyl) propionic acid],1.0 ± 0.5,exceeding 20%,13 ± 11,4.0 ± 3.6,0.481 ± 0.353,39 ± 20,9.77,13 ± 11,6.9,3.3 ± 2.5,11 ± 6.8,7.5 ± 3.1,–,11 ± 4.1,20 ± 15,"PB, NPB, P",relatively consistent transport efficiencies,"MRT last ([2]; male, Sprague-Dawley, rat, 22 mg extract blend per capsule, one capsule per animal, oral capsule, 0-24 h, n = 3 per time point, read-out: MRT0-t PB): 11 ± 6.9 h; half-life [2, 12]: 11 ± 6.9 h; occurrence ([3]; listed as 3-(3-hydroxyphenyl)propionic acid): consistently detected in plasma and brain at all time points"
O=C(O)C=Cc1ccc(O)c(OS(=O)(=O)O)c1 [caffeic acid 3-O-sulfate],1.0 ± 0.7,exceeding 20%,3.32,0.24,–,–,–,–,–,–,4.7 ± 1.8,–,–,–,–,"PB, NPB, P",relatively consistent transport efficiencies,"AUC0-t plasma [1]: 0.282 ± 0.332 µM·h; MRT0-t plasma [1]: 13 ± 8.8 h; T1/2 plasma [1]: 8.3 ± 4.9 h; Tmax plasma [1]: 8.6 ± 8.9 h; Cmax [1, 9]: 22 ± 21 nM; MRT0-t PB [2, 10]: 8.7 ± 7.3 h; T1/2 PB [2, 10]: 5.2 ± 5.7 h; Tmax PB [2, 10]: 3.0 ± 0.1 h; Tmax NPB [5]: 3.00 h"
O=c1oc2c(O)c(O)cc3c(=O)oc4c(O)c(O)cc1c4c23 [ellagic acid],0.1 ± 0.08,–,7.1 ± 7.5,0.9 ± 0.9,0.0141 ± 0.0074,1.1 ± 0.8,103,10 ± 12,–,16 ± 11,1.5 ± 1.1,15 ± 13,significantly higher transport efficiencies,56.9,36.3,"PB, NPB, P",–,free ellagic acid concentration in plasma [8]: ≤ 100 nM; concentration in NPB relative to PB ([5]; NPB versus PB): 9 fold

# Continued, in another order:
"Cmax PB [2, 10] [pmol/g tissue]","transport percentage, individual compounds [4]",AUC0-t NPB [5] [pmol·h/g],Cmax NPB [5] [pmol/g tissue],"AUC(0-t) [1, 11] [µM·h]","Cmax [1, 11] [nM]","MRT last [1, 11] [h]","Tmax [1, 11] [h]","half-life [1, 11] [h]","Tmax [2, 12] [h]","AUC0-t PB [2, 10] [pmol·h/g]",Tmax [5] [h],transport efficiency in MIXperc compared with MIXeq [4],MRT last [5] [h],half-life [5] [h],SMILES,occurrence [3],transport efficiency in both mixtures and as individual molecules [4],other results
2.8 ± 2.4,exceeding 20%,1.6 ± 0.6,0.2 ± 0.1,–,–,–,–,–,–,–,–,–,–,–,O=C(O)C=Cc1ccc(OS(=O)(=O)O)cc1 [p-coumaric acid 4-O-sulfate],"PB, NPB, P",relatively consistent transport efficiencies,"AUC0-t plasma [1]: 0.293 ± 0.154 µM·h; MRT0-t plasma [1]: 45 ± 37 h; T1/2 plasma [1]: 33 ± 28 h; Tmax plasma [1]: 3.6 ± 2.6 h; Cmax [1, 9]: 44 ± 47 nM; PB concentration relative to ferulic acid 4-O-sulfate [2]: 14 fold; MRT0-t PB [2, 10]: 30 ± 20 h; T1/2 PB [2, 10]: 23.85 h; Tmax PB [2, 10]: 19 ± 12 h; Tmax NPB [5]: 3.0 ± 0.0 h"
0.1 ± 0.01,< 5%,2.2 ± 0.1,0.2 ± 0.04,0.0084 ± 0.01,2.2 ± 2.6,8.5 ± 5.5,5.2 ± 2.2,3.9 ± 4.3,5 ± 1.7,0.1 ± 0.1,15 ± 13,lower transport percentages,–,–,O=S(=O)(O)Oc1cc(O)cc(C=Cc2ccc(O)cc2)c1 [resveratrol 3-O-sulfate],"detected in plasma, PB, and NPB; also recorded: PB, NPB, P",–,–

# From publication PMC12063173, “Metabolic Profiling of a Mediterranean-Inspired (Poly)phenol-Rich Mixture in the Brain: Perfusion Effect and In Vitro Blood–Brain Barrier Transport Validation” (Journal of Agricultural and Food Chemistry, 2025)
